According to patent US20140370520A1, “METHODS AND COMPOUNDS FOR DETECTING CANCER” (University College Cardiff Constultants Limited, priority 2010, published 2014):
Several values for one entry are separate records, joined by “and”; a condition that tells them apart may be missing. Equal entries are not always repeated.

Columns and labels:
hNQO1 [1] = target: T1, hNQO1 (Homo sapiens, UniProt P15559); assay: Activity of 4-MU and Lactone with hNQO1; assay type: biochemical; conditions: 0.1 mM, NADH 0.5 mM, hNQO1, phosphate buffer pH 7, 37° C. (FIG. 6)
Method: This experiment was performed to ensure the products of activation were not further metabolised by hNQO1. HPLC was carried out on samples containing 4-MU and Lactone (0.1 mM), NADH (0.5 mM) and hNQO1 (0.2 μg) in phosphate buffer (10 mM, pH 7) using a 1-99% acetonitrile gradient and a 2 μl injection volume. Temperature was maintained at 37° C.

[2] = Stability of MTL8-252 in NMP and sodium phosphate buffer; assay type: physicochemical
Method: Stability of 0.1M MTL8-252 in NMP was assessed over a 2-hour period at 37° C. The compound appeared stable as evidenced by the fact that the uv absorbance peak area remained substantially unchanged. […] A similar experiment was carried out with DMSO stock diluted in 10 mM sodium phosphate buffer.

[3] = system: null expressing cells (F179); assay: MTL8-252 incubation with cultured cells, luminescence spectrophotometric determination of 4-MU; assay type: cell-based; conditions: F179 2.5×10^5 cells/mL, luminescence spectrophotometer
Method: (§1) Human NQO1 expressing cells (HDT7) and null expressing cells (F179) were cultured in Eagle's MEM medium enriched with non-essential amino acids and 10% FBS. Cells were harvested in exponential growing phase and suspended in cold PBS @ 5×10^6 cells/ml. 100 ul of cell suspension (5×10^5 cells) were added to 3 ml PBS containing 10 uM MTL8-252 at 37° C. in a fluorimeter cuvette and the rate of increase in fluorescence intensity (attributed to 4-MU release), measured over 3 minutes. Control experiment contained substrate alone in PBS.
(§2) The Luminescence Spectrophotometer settings were as follows: λex=360 nm; λem=452 @ 37° C.

[4] = target: T2, Human NQO1 expressing cells (HDT7) (Homo sapiens, UniProt P15559); assay: as above; assay type: cell-based
T2 construct: expressed in transfected cells; host or cells: HDT7 (engineered NQO1-producing cell line; F179 is the null control)
Method: as §1, §2

hNQO1 [5] = target: T1, hNQO1; assay: Evaluation of MTL8-252 activity with human NQO1 (HPLC/UPLC, UV and fluorescence detection); assay type: biochemical
Method: Initial HPLC was carried out on samples containing MTL8-252 (0.1 mM), NADH (0.5 mM) and 0.5 μg/ml hNQO1 in phosphate buffer (10 mM, pH 7) using a 1-99% acetonitrile gradient and a 1 μl injection volume. Temperature was maintained at 37° C.
Reduction of the parent compound was rapid as most of it had disappeared by the second injection. […] The rate of reduction in MTL8-252 concentration was calculated at 5.9 μM/min and when the concentration of the enzyme was halved the rate reduced to 1.5 μM/min
By altering the settings of the FL Plus detector (Low PMT voltage, λex 410 nm, λem 550 nm) and calibrating for 4-MU measurements by establishing a calibration graph it can be seen that there was a linear response to 4-MU up to at least 200 μM. The maximum concentration used in incubation experiments is 100 μM, final.
Following calibration of the instrument, a repeat experiment of the activation of MTL8-252 by hNQO1 was carried out resulting in calculated rates of loss of MTL8-252 and formation of 4-MU (see FIG. 4). Rate loss of MTL8-252 was 8.41 uM/min and that corresponding to 4-MU formation determined by fluorescence was 13.51 uM/min.

hNQO1 [6] = target: T1, hNQO1; assay: as above; assay type: biochemical; remark: listed apart in the source
[7] = Solubility of MTL8-252 in NMP and DMSO; assay type: physicochemical
Method: NMP Solubility: A solution of the product of Example 3D (MTL8-252) was prepared in NMP and further diluted to 0.1M in NMP. The purity of the compound was assessed via uplc using a 1-99% Acetonitrile gradient. Injection volumes of 0.5 μl, 1 μl, 2 μl, 3 μl and 5 μl were used. Purity was determined to be almost 100% based on uv data at 265 nm. The FL Plus settings were (high PMT voltage, λex 410 nm and λem 550 nm, off peak). Only a single peak with retention time of approx 4.3 min was detected. MTL8-252 was equally very soluble in DMSO.
A similar result was obtained for the diluted DMSO stock. Subsequent experiments utilised 0.1M diluted stock in 10 mM phosphate buffer, pH 7.0 and injected directly onto the uplc column

[8] = target: T3, hDT7 NQO1-expressing cell line (Homo sapiens, UniProt P15559); assay: MTL8-252 incubation with cultured cells, uplc separation followed by FL-Plus detection; assay type: cell-based
T3 construct: expressed in transfected cells; host or cells: HDT7 (engineered NQO1-producing cell line; F179 is the null control)
Method: (§3) Cells in exponential growth phase were harvested and resuspended in cold PBS at 5×10^6 cells/ml. 100 ul of cell suspension (5×10^5 cells) were added to 1 ml PBS containing 10 uM MTL8-252 at 37° C. and incubated for the following time periods: 0, 5, 30 and 60 min. The reaction was stopped by spinning down cells at 13,000 rpm for 30 seconds and the cell free extract injected (2 ul) directly unto the uplc.

[9] = system: null expressing cell line F179; assay: as above; assay type: cell-based; conditions: MTL8-252 10 μM in PBS, 5×10^5 cells/mL
Method: as §3

[10] = Control experiment: substrate alone without cells, 4-MU release; assay type: physicochemical
hNQO2 in PC3 cells = target: T4, hNQO2 in PC3 cells (Homo sapiens, UniProt P16083); assay: Discrimination between NQO1 and NQO2 activity in PC3 cells with co-substrate EP-0152R; assay type: cell-based; conditions: 5×10^5 PC-3 cells, 10 uM MTL8-252, 100 uM EP-0152R, 37° C., 5 min (FIG. 14)
T4 construct: Prostate carcinoma cells (as exemplified by PC3 cells) express both NQO1 and NQO2 activity; endogenous in cells; host or cells: PC3 (PC-3) human prostate cancer cell line
T4 sequence (P16083 1-231): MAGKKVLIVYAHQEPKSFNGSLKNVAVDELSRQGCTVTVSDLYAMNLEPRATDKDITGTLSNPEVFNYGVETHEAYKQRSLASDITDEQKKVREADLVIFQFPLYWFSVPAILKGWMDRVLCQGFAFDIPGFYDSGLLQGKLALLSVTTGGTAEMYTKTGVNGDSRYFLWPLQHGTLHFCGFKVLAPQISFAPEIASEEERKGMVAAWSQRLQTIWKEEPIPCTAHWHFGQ
Method: Prostate carcinoma cells (as exemplified by PC3 cells) express both NQO1 and NQO2 activity. However, the latter is only activated by the presence of a co-substrate not naturally present in the cells (EP-0152R, 1-carbamoylmethyl-3-carbamoyl-1,4-dihydronicotinamide).
To 440 ul of PBS containing 5×10^5 PC-3 cells pre-incubated at 37° C. for 5 min was added 10 uM MTL8-252 fluorogenic substrate in DMSO (final, 10 ul) and volume adjusted to 500 ul with PBS. After incubating for a further 5 min the mixture was syringe filtered as above and 2 ul of supernatant analysed by uplc as described earlier. The reaction on the same number of cells was repeated with the inclusion of 100 uM EP-0152R (50 ul) as co-substrate during incubation. The reaction mixture was filtered and analysed as above. […] In the former instance, where NQO1 and NQO2 are expressed, the supplemented assay can be used to provide a stronger assay signal and in the latter instance, where only NQO2 is expressed, the supplemented assay can be used to detect hNQO2 expressing cancers only.

[11] = Stability of MTL8-252 in PBS and cell culture media with or without FBS; assay type: physicochemical
From the text: Possible source is from FBS added in media.

[12] = repeat experiment after calibration (FIG. 4)
[13] = replots of UV data at 210 nm (FIG. 5)

T1 sequence (P15559 whole entry): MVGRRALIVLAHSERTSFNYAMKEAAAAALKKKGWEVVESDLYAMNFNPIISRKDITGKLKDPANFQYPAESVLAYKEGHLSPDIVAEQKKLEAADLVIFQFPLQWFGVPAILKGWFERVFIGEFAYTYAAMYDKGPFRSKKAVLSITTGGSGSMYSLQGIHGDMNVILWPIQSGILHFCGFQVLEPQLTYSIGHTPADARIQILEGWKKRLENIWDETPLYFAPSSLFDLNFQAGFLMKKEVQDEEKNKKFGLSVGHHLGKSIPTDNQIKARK
T2 sequence (P15559 whole entry): as above
T3 sequence (P15559 whole entry): as above

In the case of `Cc1cc(=O)oc2cc(O)ccc12` [Compound 4-MU, 4-methylumbelliferone, reference compound], the “substrate of / stability in the presence of hNQO1” value (“substrate of / stability” below) (hNQO1 [1]) is reported as “not substrates of hNQO1” and the “substrate of / stability” value (hNQO1 [1]; listed as 4 MU) is reported as “stable in the presence of hNQO1”.

With `CC1=C(C)C(=O)C(C(C)(C)CC(=O)Oc2ccc3c(C)cc(=O)oc3c2)=C(C)C1=O` [MTL8-252, 4-Methyl-2-oxo-2H-chromen-7-yl-3-methyl-3-(2,4,5-trimethyl-3,6-dioxocyclohexa-1,4-dienyl)butanoate] the “release of 4-methylumbelliferone (4-MU) in NMP” value ([2]; 0.1M in NMP, 2-hour period at 37° C.) was “No detectable release”, the “Stability in NMP” value ([2]; 0.1M in NMP, 2-hour period at 37° C., uv absorbance peak area) was “stable” and the “stability in 10 mM sodium phosphate buffer, time stable” value ([2]; DMSO stock diluted in 10 mM sodium phosphate buffer (FIG. 2)) was “at least 1 hr”. For the same compound, the “stability in phosphate buffer, time stable” value ([2]; phosphate buffer (10 mM), 37° C., monitored 75 mins (FIG. 2)) was “at least 1 hour”, the rate of formation of 4 MU in the F179 cells (FIG. 7) [3] was 0.18 nmol/min and the “increase in 4-MU formation rate, HDT7 compared with null expressing cells (F179)” value ([4]; FIG. 7, luminescence spectrophotometer) was “at least 5 fold”. The rate of formation of 4 MU in the hDT7 cells (FIG. 7) ([4]; hDT7 2.5×10^5 cells/mL, luminescence spectrophotometer) was 0.83 nmol/min, the “rate of disappearance of Compound (FIG. 4)” value (hNQO1 [5]; MTL8-252 100 μM, hNQO1 0.2 μg/mL, NADH 500 μM, UPLC) was 13.51 µM/min and the “reduction in the area of the peak without enzyme” value (hNQO1 [5]; MTL8-252 alone or with NADH alone (FIG. 3)) was “No significant reduction”. For the same compound, the rate of appearance of 4 MU (FIG. 5) (hNQO1 [5]; UV at 210 nm, hNQO1 and NADH) was 11.5 µM/min, the rate of appearance of the lactone (FIG. 5) (hNQO1 [5]; UV at 210 nm, hNQO1 and NADH) was 9.84 µM/min and the rate of disappearance of MTL8-252 (FIG. 5) (hNQO1 [5]; UV at 210 nm, hNQO1 and NADH) was 8.41 µM/min. The “rate of appearance of 4 MU (FIG. 4)” value (hNQO1 [5]; detected by fluorescence, MTL8-252 100 μM, hNQO1 0.2 μg/mL, NADH 500 μM) was 8.41 µM/min, the “Rate of formation of Lactone (n = 2)” value (hNQO1 [5]; initial rates, MTL8-252 0.1 mM, NADH 0.5 mM, hNQO1, pH 7, 37° C.) was 9.84 µM/min and 7.61 µM/min and the “Rate of decrease in MTL8-252 concentration (n = 4)” value (hNQO1 [5]; initial rates, MTL8-252 0.1 mM, NADH 0.5 mM, hNQO1, phosphate buffer 10 mM pH 7, 37° C.) was 5.9 µM/min and 6.21 µM/min and 8.41 µM/min and 9.05 µM/min. For the same compound, the “Rate of formation of 4-MU @ 210 nm (n = 2)” value (hNQO1 [5]; initial rates, UV 210 nm, MTL8-252 0.1 mM, NADH 0.5 mM, hNQO1, pH 7, 37° C.) was 11.48 µM/min and 6.0 µM/min, the “Rate of formation of 4-MU by FL (n = 2)” value (hNQO1 [5]; initial rates, fluorescence detection, MTL8-252 0.1 mM, NADH 0.5 mM, hNQO1, pH 7, 37° C.) was 13.51 µM/min and 6.90 µM/min and the “4-MU formation determined by fluorescence” value (hNQO1 [5]; [12]) was 13.51 µM/min. The “Rate loss of MTL8-252” value (hNQO1 [5]; [12]) was 8.41 µM/min, the “initial rate of formation of 4-MU” value (hNQO1 [5]; [13]) was 11.48 µM/min and the “initial rate of formation of lactone” value (hNQO1 [5]; [13]) was 9.84 µM/min. For the same compound, the “substrate for hNQO1” value (hNQO1 [5]; with NADH, pH 7, 37° C.) was “excellent substrate for hNQO1”, the “rate of reduction in MTL8-252 concentration” value (hNQO1 [6]; 0.2 μg/ml hNQO1, NADH) was 5.9 µM/min and the “rate of reduction in MTL8-252 concentration” value (hNQO1 [6]; concentration of the enzyme halved (0.10 μg/mL hNQO1)) was 1.5 µM/min. The “solubility in DMSO” value [7] was “very soluble”, the “increase in activity of hNQO1 expressing cells over null expressing cells (initial rate)” value ([8]; FIG. 8, uplc FL-Plus) was “about 100 fold” and the “initial rate of release of 4 MU in hDT7 cells (FIG. 8)” value ([8]; MTL8-252 10 μM in PBS, 5×10^5 cells/mL, FL-Plus λex=360 nm λem=450 nm) was 6.1 µM/min. The “initial rate of release of 4 MU in F179 cells (FIG. 8)” value [9] was 0.068 µM/min, the “rate of release of 4 MU from the control experiment (FIG. 8)” value ([10]; MTL8-252 10 μM in PBS alone) was 0.002 µM/min and the “rate of formation of 4 MU in the urine alone (FIG. 7)” value ([10]; compound in urine alone, no cells) was 0.32 nmol/min. For the same compound, the “increase in the formation of 4-MU by addition of hNQO2 selective co-substrate” value (hNQO2 in PC3 cells) was 1.2 fold, the “stability in PBS (FIG. 9)” value ([11]; PBS) was “very stable” and the “stability in cell culture medium (FIG. 9)” value ([11]; PBS replaced with cell culture medium, possible source FBS) was “other components in the media can reduce MTL8-252”. For the same compound, the “stability in media without FBS (FIG. 9)” value ([11]; media without FBS) was “very stable”.

For `Cc1c(C)c2c(c(C)c1O)C(C)(C)CC(=O)O2` [Lactone, 6-Hydroxy-4,4,5,7,8-pentamethyl-1-benzopyran-2-one], the “substrate of / stability” value (hNQO1 [1]) was “not substrates of hNQO1” and the “substrate of / stability” value (hNQO1 [1]; listed as lactone) was “stable in the presence of hNQO1”.
